As usually defined, the IC50 is the concentration at which inhibition is half-maximal.

The text below walks through data of patent US20190352276A1, “INHIBITORS OF BRUTON'S TYROSINE KINASE” (Joint Stock Company "Biocad", priority 2016, published 2019).

Read-outs that look alike come from different tables or passages of the source.

Data set [1] concerns Z-138 (mantle cell lymphoma). As to the kind of experiment: Antiproliferative activity, Z-138 cells (Alamar Blue). The data set is classed as cell-based. Conditions: Homo sapiens. In outline: (§1)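 RPMI-1640/10% FBS/gentamicin, ~3*10^4 cells/well; cpd in DMSO (final <1%), 72 h, 37 °C, 5% CO2. Alamar Blue 14-16 h; fluor. Ex540/Em590. IC50 from 4-parameter logistic (Levenberg-Marquardt).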
On the technique in general: Alamar Blue is a resazurin reagent that responds to reducing activity.

In data set [2] the test system is Mino (mantle cell lymphoma). As to the kind of experiment: Antiproliferative activity, Mino cells (Alamar Blue). Conditions: Homo sapiens. The data set is classed as cell-based. In outline: as §1
The target in data set [3] is T1, recombinant Btk kinase enzyme (Homo sapiens, UniProt Q06187).
T1 construct: purchased SignalChem B10-10H
The experiment in a line: In vitro inhibition of Btk kinase activity (ADP-Glo). The following applies: read-out: IC50 kinase BTK. The data set is classed as biochemical. In outline:
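Recombinant human Btk phosphorylating Poly(Glu,Tyr 4:1) substrate (0.5 mg/mL) with 50 μM ATP, 180 min at 37° C., in presence of inhibitor. ADP formed detected by ADP-Glo luminescence; IC50 from four-parameter logistic fit.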

Another data set has as its target T2, EGFR (Homo sapiens, UniProt P00533).
T2 construct: purchased SignalChem E10-11G
The experiment in a line: In vitro kinase panel: EGFR. It counts as biochemical. The following applies: Table 9 kinase panel. The protocol:
(§2) The measurements were carried out in a 25 μL reaction volume using a 96-well plate (Corning, #3642). The kinase enzyme and inhibitor were pre-incubated for 10 minutes in the reaction buffer containing 25 mM of MOPS (pH 7.2), 12.5 mM of 0-glycerophosphate, 27 mM of MgCl2, 2 mM of MnCl2, 5 mM of EGTA, 2 mM of EDTA, 0.3 mM of DTT, and 1.2 mg/mL of bovine serum albumin. Staurosporine (Abcam Biochemicals, ab146588) was used as a reference inhibitor and 0.1% DMSO in the reaction buffer—as a negative control. The solution of 0.5 mg/mL peptide substrate and 50 &M ATP in the same buffer were added; the solution was incubated for 180 minutes at 37° C. To detect the amount of ATP taken up during the kinase reaction, the equivalent amount of ADP (from the ADP Glo Detection Kit (Promega, #V9101)) was used according to the protocol. The reaction mixture was equilibrated to room temperature. 25 µL of ADP-Glo Reagent were added into each well; the plate was incubated for 40 minutes. 50 μL of Kinase Detection Reagent were added; the plate was incubated for 30 minutes. The luminescence was measured with multimode plate reader (Tecan Infinite M200Pro, Switzerland). IC50 values were calculated using Magellan 7.2 software (Tecan, Switzerland) approximating experimental points by four-parameter logistic model with the optimization by Levenberg-Marquardt.
(§3) For active compounds selected by screening using the target enzyme BTK, the values of IC50 were determined on a kinase panel: EGFR (SignalChem, #E10-11G), ITK (SignalChem, #I13-10G) and TEC (SignalChem, #T03-10G).

The target of another data set is T3, TEC (Homo sapiens, UniProt P42680).
T3 construct: purchased SignalChem T03-10G
T3 sequence (P42680 1-631): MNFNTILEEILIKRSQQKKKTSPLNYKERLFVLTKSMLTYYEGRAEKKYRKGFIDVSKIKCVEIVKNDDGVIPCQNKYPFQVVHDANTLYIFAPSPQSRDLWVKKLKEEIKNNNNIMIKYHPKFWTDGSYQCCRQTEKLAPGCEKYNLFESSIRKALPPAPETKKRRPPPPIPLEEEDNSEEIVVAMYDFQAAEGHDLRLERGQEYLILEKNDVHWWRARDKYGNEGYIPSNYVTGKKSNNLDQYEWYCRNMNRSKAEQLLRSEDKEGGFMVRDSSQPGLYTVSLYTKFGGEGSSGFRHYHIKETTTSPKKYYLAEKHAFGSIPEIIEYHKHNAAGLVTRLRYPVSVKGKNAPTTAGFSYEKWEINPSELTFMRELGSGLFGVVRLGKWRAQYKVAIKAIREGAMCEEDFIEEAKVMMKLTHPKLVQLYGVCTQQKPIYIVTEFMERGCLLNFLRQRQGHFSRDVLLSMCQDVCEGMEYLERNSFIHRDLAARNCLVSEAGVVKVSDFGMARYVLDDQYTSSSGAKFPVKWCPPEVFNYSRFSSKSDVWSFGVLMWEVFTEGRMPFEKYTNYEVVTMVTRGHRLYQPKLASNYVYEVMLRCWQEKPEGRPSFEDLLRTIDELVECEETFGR
The experiment in a line: In vitro kinase panel: TEC. The data set is classed as biochemical. Conditions: Table 9 kinase panel. The protocol: as §2, §3

Data set [4] in a line: Stability in human blood plasma. Conditions: 10 μM in pooled human blood plasma, incubated 4 hours at 37° C.
The mark [5] stands for this setting: Table 10, 72 h, average of several tests.

T2 sequence (P00533 672-1210 limits assumed): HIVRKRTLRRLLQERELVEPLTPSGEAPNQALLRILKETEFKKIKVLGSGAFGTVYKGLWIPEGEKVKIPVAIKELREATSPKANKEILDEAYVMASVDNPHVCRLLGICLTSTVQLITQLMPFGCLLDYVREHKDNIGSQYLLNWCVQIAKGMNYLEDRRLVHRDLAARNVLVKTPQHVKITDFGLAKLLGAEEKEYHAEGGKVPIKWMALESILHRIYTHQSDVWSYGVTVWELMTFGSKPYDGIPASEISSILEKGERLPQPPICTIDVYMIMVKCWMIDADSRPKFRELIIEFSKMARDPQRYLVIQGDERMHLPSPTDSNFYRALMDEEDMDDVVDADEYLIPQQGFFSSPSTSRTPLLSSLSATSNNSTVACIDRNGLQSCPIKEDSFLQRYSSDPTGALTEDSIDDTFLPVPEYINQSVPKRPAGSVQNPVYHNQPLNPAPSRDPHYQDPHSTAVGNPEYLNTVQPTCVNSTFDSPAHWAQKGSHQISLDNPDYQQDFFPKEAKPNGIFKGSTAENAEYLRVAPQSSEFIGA
T1 sequence (Q06187 whole entry): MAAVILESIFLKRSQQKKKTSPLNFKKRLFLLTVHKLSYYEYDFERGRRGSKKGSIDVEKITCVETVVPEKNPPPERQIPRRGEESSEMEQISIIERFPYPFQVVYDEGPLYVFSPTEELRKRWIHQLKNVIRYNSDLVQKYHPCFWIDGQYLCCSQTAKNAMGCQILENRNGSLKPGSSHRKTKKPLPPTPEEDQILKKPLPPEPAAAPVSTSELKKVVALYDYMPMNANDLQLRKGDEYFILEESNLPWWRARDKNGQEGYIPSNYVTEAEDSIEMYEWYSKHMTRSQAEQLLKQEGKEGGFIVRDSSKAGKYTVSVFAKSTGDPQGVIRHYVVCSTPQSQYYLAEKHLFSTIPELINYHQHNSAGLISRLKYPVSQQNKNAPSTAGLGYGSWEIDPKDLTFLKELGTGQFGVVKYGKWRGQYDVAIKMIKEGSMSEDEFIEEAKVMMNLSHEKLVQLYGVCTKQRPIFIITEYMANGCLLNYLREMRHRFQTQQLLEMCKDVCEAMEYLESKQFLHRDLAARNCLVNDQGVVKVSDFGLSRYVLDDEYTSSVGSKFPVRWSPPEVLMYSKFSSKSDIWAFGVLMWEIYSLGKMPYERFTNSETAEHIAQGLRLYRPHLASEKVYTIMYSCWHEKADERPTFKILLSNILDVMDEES

For the molecule `C=CC(=O)N1CCC[C@@H](n2nc(-c3ccc(Oc4ccncc4)cc3)c3cncc(Cl)c32)C1` [BCD-BTK-125, (R)-1-(1-acryloylpiperidin-3-yl)-7-chloro-3-(4-(pyridin-4-yloxy)phenyl)-1H-pyrazolo[4,3-c]pyridine], the IC50 in data set [1] (Table 11, 72 h) was 14600 nM; in data set [2] (Table 11, 72 h), 7300 nM; in data set [3] (Table 9 kinase panel) it was 109 nM; against EGFR, over 1000 nM.
Consider `C=CC(=O)N1CCC[C@@H](n2nc(-c3ccc(Oc4ccncc4)cc3)c3c(N)ncc(Cl)c32)C1` [BCD-BTK-139, (R)-1-(1-acryloylpiperidin-3-yl)-7-chloro-3-(4-(pyridin-4-yloxy)phenyl)-1H-pyrazolo[4,3-c]pyridin-4-amine], for which the IC50 turned out to be 21100 nM in data set [1] (Table 11, 72 h); 10200 nM in data set [2] (Table 11, 72 h); 0.85 nM in data set [3] (Table 9 kinase panel); 48.8 nM against EGFR.
As for `C=CC(=O)N1CCC[C@@H](n2nc(-c3ccc(C(=O)Nc4ccccn4)cc3)c3cncc(Cl)c32)C1` [BCD-BTK-201], the IC50 was found to be 6540 nM in data set [1] (setting [5]); 55.2 nM against TEC; 11900 nM in data set [2] (setting [5]); 19.1 nM in data set [3] (Table 8, ADP-Glo); 172 nM on EGFR.
With `C=CC(=O)N1CCC[C@@H](n2nc(-c3ccc(Oc4ccncc4C#N)cc3)c3cncc(Cl)c32)C1` [BCD-BTK-202, (R)-4-(4-(1-(1-acryloylpiperidin-3-yl)-7-chloro-1H-pyrazolo[4,3-c]pyridin-3-yl)phenoxy)nicotinonitrile], the IC50 in data set [1] (setting [5]) is 12600 nM; on TEC it was over 500 nM; in data set [2] (setting [5]), 7790 nM; in data set [3] (Table 8, ADP-Glo), 74.6 nM; against EGFR, over 500 nM.
For `C=CC(=O)N1CCC[C@@H](n2nc(-c3ccc(Oc4cccnc4C(N)=O)cc3)c3cncc(Cl)c32)C1` [BCD-BTK-220, 3-(4-{7-chloro-1-[(3R)-1-(prop-2-enoyl)piperidin-3-yl]-1H-pyrazolo[4,3-c]pyridin-3-yl}phenoxy)pyridine-2-carboxamide], the IC50 in data set [1] (setting [5]) was 14200 nM; on TEC it was over 100 nM; in data set [2] (setting [5]), 10500 nM; in data set [3] (Table 8, ADP-Glo), 53.5 nM; on EGFR it was 820 nM. Besides, in data set [4], the “Amount of substance in the sample, % (stability in human blood plasma)” value (“Amount of substance in the sample, %” below) is recorded as 90.2%.
As to `C=CC(=O)N1CCC[C@@H](n2nc(-c3ccc(Oc4cccnc4C#N)cc3)c3cncc(F)c32)C1` [BCD-BTK-230, (R)-3-(4-(1-(1-acryloylpiperidin-3-yl)-7-fluoro-1H-pyrazolo[4,3-c]pyridin-3-yl)phenoxy)picolinonitrile], the IC50 was 14400 nM in data set [1] (setting [5]); over 200 nM against TEC; 9810 nM in data set [2] (setting [5]); 10.5 nM in data set [3] (Table 8, ADP-Glo); over 500 nM against EGFR. For the same molecule, the “Amount of substance in the sample, %” value in data set [4] turned out to be 93.3%.
For `C=CC(=O)N1CCC[C@@H](n2nc(-c3ccc(C(=O)Nc4ccccn4)cc3)c3c(N)ncc(C#N)c32)C1` [BCD-BTK-234, (R)-4-(1-(1-acryloylpiperidin-3-yl)-4-amino-7-cyano-1H-pyrazolo[4,3-c]pyridin-3-yl)-N-(pyridine-2-yl)benzamide], the IC50 was 16800 nM in data set [1] (setting [5]); 14.8 nM against TEC; 9600 nM in data set [2] (setting [5]); 1.17 nM in data set [3] (Table 8, ADP-Glo); 1.8 nM against EGFR. Besides, the “Amount of substance in the sample, %” value in data set [4] is 83.5%.
As to `C=CC(=O)N1CCC[C@@H](n2nc(-c3ccc(Oc4ccncc4)cc3)c3c(N)ncc(OC)c32)C1` [BCD-BTK-239, (R)-1-(1-acryloylpiperidin-3-yl)-4-amine-7-methoxy-3-(4-(pyridin-4-yloxy)phenyl)-1H-pyrazolo[4,3-c]pyridine], the IC50 in data set [1] (setting [5]) was found to be 16000 nM; against TEC, 6 nM; in data set [2] (setting [5]), 14200 nM; in data set [3] (Table 8, ADP-Glo), 2.38 nM; against EGFR, 10.5 nM. Also, the “Amount of substance in the sample, %” value in data set [4] came out at 80.3%.
Consider `C=CC(=O)N1CCC[C@@H](n2nc(-c3ccc(C(=O)Nc4ccccn4)cc3)c3c(N)ncc(OC)c32)C1` [BCD-BTK-240, (R)-4-(1-(1-acryloylpiperidin-3-yl)-4-amino-7-methoxy-1H-pyrazolo[4,3-c]pyridin-3-yl)-N-(pyridin-2-yl)benzamide], for which the IC50 is 10500 nM in data set [1] (setting [5]); 3.81 nM at TEC; 14100 nM in data set [2] (setting [5]); 2.25 nM in data set [3] (Table 8, ADP-Glo); 2.41 nM on EGFR. Moreover, the “Amount of substance in the sample, %” value in data set [4] turned out to be 100.0%.
Take `C=CC(=O)N1CCC[C@@H](n2nc(-c3ccc(C(=O)Nc4ccccn4)cc3)c3c(N)nccc32)C1` [BCD-BTK-242, (R)-4-(1-(1-acryloylpiperidin-3-yl)-4-amino-1H-pyrazolo[4,3-c]pyridin-3-yl)-N-(pyridin-2-yl)benzamide]: the IC50 in data set [1] (setting [5]) was determined as 16500 nM; against TEC, 6.61 nM; in data set [2] (setting [5]), 17300 nM; in data set [3] (Table 8, ADP-Glo) it was 1.77 nM; on EGFR, 1.32 nM. In addition, the “Amount of substance in the sample, %” value in data set [4] is reported as 100.0%.
As to `C=CC(=O)N1CCC[C@@H](n2nc(-c3ccc(C(=O)Nc4cc(C(F)(F)F)ccn4)cc3)c3c(N)ncc(Cl)c32)C1` [BCD-BTK-251, (R)-4-(1-(1-acryloylpiperidin-3-yl)-4-amino-7-chloro-1H-pyrazolo[4,3-c]pyridin-3-yl)-N-(4-(trifluoromethyl)pyridin-2-yl)benzamide], the IC50 was 4460 nM in data set [1] (setting [5]); 7.21 nM against TEC; 3650 nM in data set [2] (setting [5]); 2.71 nM in data set [3] (Table 8, ADP-Glo); 8.83 nM at EGFR.
With `C=CC(=O)N1CCC[C@@H](n2nc(-c3ccc(C(=O)Nc4cc(C(F)(F)CCC)ccn4)cc3)c3cncc(Cl)c32)C1` [BCD-BTK-252, (R)-4-(1-(1-acryloylpiperidin-3-yl)-7-chloro-1H-pyrazolo[4,3-c]pyridin-3-yl)-N-(4-(1,1-difluorobutyl)pyridin-2-yl)benzamide], the IC50 in data set [1] (setting [5]) is 14900 nM; on TEC it was over 100 nM; in data set [2] (setting [5]) it was 4460 nM; in data set [3] (Table 8, ADP-Glo) it was 14.6 nM; on EGFR, over 500 nM.
On the same counts, the results for `C=CC(=O)N1CCC[C@@H](n2nc(-c3ccc(C(=O)Nc4ncccc4F)cc3)c3c(N)ncc(C#N)c32)C1` [BCD-BTK-258, 4-{4-amino-7-cyano-1-[(3R)-1-(prop-2-enoyl)piperidin-3-yl]-1H-pyrazolo[4,3-c]pyridin-3-yl}-N-(3-fluoropyridin-2-yl)benzamide] are 35800 nM, 2.92 nM, 17300 nM, 1.17 nM and 18.6 nM.
On the same counts, the results for `C=CC(=O)N1CCC[C@@H](n2nc(-c3cnc(C(=O)Nc4cc(C(F)(F)CCC)ccn4)nc3)c3cncc(Cl)c32)C1` [BCD-BTK-292, (R)-5-(1-(1-acryloylpiperidin-3-yl)-7-chloro-1H-pyrazolo[4,3-c]pyridin-3-yl)-N-(4-(1,1-difluorobutyl)pyridin-2-yl)pyrimidine-2-carboxamide] are over 50000 nM, 77.8 nM, 3350 nM, 7.34 nM and over 500 nM.
